This is an account of results in patent publication US20120101093A1, “SUBSTITUTED IMIDAZO[1,2-A]PYRIDINE DERIVATIVES, PHARMACEUTICAL COMPOSITIONS, AND METHODS OF USE AS BETA-SECRETASE INHIBITORS” (HIGH POINT PHARMACEUTICALS, LLC, priority 2009, published 2012).

Assay [1] relates to Aβ1-40 secreted from HEK293 cells stably expressing wildtype human APP695 protein (HEK-APPwt cells). The experiment in a line: Aβ Cell Based Assay (Aβ1-40 secretion, ELISA). The settings on record: Homo sapiens, HEK293, 6 h, 6 hours incubation, reduction of Aβ1-40 secretion. In a few lines:
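Cells in DMEM with 2% FBS exposed to ten compound concentrations for 6 h at 37 °C. Secreted Aβ1-40 in supernatant quantified by sandwich ELISA (82E1 capture, TMB, OD450). EC50 from percent inhibition, DAPT defining 100% inhibition, non-linear fit.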
A general note: In an ELISA, binding on a coated surface is turned into a signal by an enzyme label.

The target of the next assay is T1, BACE-1 enzyme (Homo sapiens, UniProt P56817).
T1 construct: purchased R & D Systems 931AS
T1 sequence (P56817 46-457 limits assumed): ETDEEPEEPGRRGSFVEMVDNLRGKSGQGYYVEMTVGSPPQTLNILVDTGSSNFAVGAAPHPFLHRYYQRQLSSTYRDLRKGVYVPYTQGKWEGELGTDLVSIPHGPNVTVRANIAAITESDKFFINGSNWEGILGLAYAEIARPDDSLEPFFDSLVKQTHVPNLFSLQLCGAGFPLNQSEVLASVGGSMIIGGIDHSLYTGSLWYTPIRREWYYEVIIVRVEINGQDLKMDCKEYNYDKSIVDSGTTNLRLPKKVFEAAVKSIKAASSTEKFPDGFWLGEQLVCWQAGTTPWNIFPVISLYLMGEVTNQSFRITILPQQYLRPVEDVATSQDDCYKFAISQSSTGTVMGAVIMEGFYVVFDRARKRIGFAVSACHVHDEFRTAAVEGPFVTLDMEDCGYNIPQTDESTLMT
The experiment in a line: BACE Fluorescence Resonance Energy Transfer (FRET) Assay. The conditions noted are these: pH 4-4.5, 30 min pre-incubation, about 1.5 hours reaction. It counts as biochemical. In a few lines: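 BACE-1 enzyme pre-incubated 30 min with compound in 7.5% DMSO in 50 mM sodium acetate pH 4-4.5, 0.01% CHAPS, 0.0125% Triton X-100, 0.006% EDTA. Rhodamine/quencher peptide substrate added; ~1.5 h at room temperature, fluorescence read at 540/585 nm. IC50 or percent inhibition at one concentration.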

In turn, `O=C(Nc1nc2cc(-c3cccc(C(F)(F)F)c3)ccc2[nH]1)c1cn2cc(CO)ccc2n1` [Example 177, 6-Hydroxymethyl-imidazo[1,2-a]pyridine-2-carboxylic acid [5-(3-trifluoromethyl-phenyl)-1H-benzoimidazol-2-yl]-amide] came in with an EC50 in assay [1] of 1.03 µM. At BACE-1 enzyme, this compound returned an IC50 of 0.3 µM.
As for `O=C(Nc1nc2cc(-c3cccc(C(F)(F)F)c3)ccc2[nH]1)c1cn2cc(CN3CCCC3)ccc2n1` [Example 179, 6-Pyrrolidin-1-ylmethyl-imidazo[1,2-a]pyridine-2-carboxylic acid [5-(3-trifluoromethyl-phenyl)-1H-benzoimidazol-2-yl]-amide], in assay [1], the EC50 worked out at 4.74 µM. This compound gave a half-inhibitory concentration (IC50) against BACE-1 enzyme of 0.55 µM.
`O=C(Nc1nc2cc(-c3cccc(C(F)(F)F)c3)ccc2[nH]1)c1cn2cc(CN3CCOCC3)ccc2n1` [Example 182, 6-Morpholin-4-ylmethyl-imidazo[1,2-a]pyridine-2-carboxylic acid [5-(3-trifluoromethyl-phenyl)-1H-benzoimidazol-2-yl]-amide] yielded an EC50 in assay [1] of 0.54 µM. Further, on BACE-1 enzyme, half-maximal inhibition (IC50) was put at 0.46 µM.
Taken in the same sequence, the figures for `CC(C)CN(C)Cc1ccc2nc(C(=O)Nc3nc4cc(-c5cccc(C(F)(F)F)c5)ccc4[nH]3)cn2c1` [Example 184, 6-[(Isobutyl-methyl-amino)-methyl]-imidazo[1,2-a]pyridine-2-carboxylic acid [5-(3-trifluoromethyl-phenyl)-1H-benzoimidazol-2-yl]-amide] were 4.32 µM and 0.83 µM.
In turn, `CN(Cc1ccccc1)Cc1ccc2nc(C(=O)Nc3nc4cc(-c5cccc(C(F)(F)F)c5)ccc4[nH]3)cn2c1` [Example 185, 6-[(Benzyl-methyl-amino)-methyl]-imidazo[1,2-a]pyridine-2-carboxylic acid [5-(3-trifluoromethyl-phenyl)-1H-benzoimidazol-2-yl]-amide] had an EC50 in assay [1] of 1.93 µM. On BACE-1 enzyme, this compound yielded a half-maximal inhibitory concentration (IC50) of 0.62 µM.
In turn, `CCN(C)Cc1ccc2nc(C(=O)Nc3nc4cc(-c5cccc(C(F)(F)F)c5)ccc4[nH]3)cn2c1` [Example 188, 6-[(Ethyl-methyl-amino)-methyl]-imidazo[1,2-a]pyridine-2-carboxylic acid [5-(3-trifluoromethyl-phenyl)-1H-benzoimidazol-2-yl]-amide] returned an EC50 in assay [1] of 3.6 µM. Also, the IC50 against BACE-1 enzyme worked out at 0.69 µM.
Taken in the same sequence, the figures for `O=C(Nc1nc2cc(-c3cccc(C(F)(F)F)c3)ccc2[nH]1)c1cn2cccc(CO)c2n1` [Example 192, 8-Hydroxymethyl-imidazo[1,2-a]pyridine-2-carboxylic acid [5-(3-trifluoromethyl-phenyl)-1H-benzoimidazol-2-yl]-amide] were 2.56 µM and 0.4 µM.
Compound `CN1CCN(Cc2cccn3cc(C(=O)Nc4nc5cc(-c6cccc(C(F)(F)F)c6)ccc5[nH]4)nc23)CC1` [Example 194, 8-(4-Methyl-piperazin-1-ylmethyl)-imidazo[1,2-a]pyridine-2-carboxylic acid [5-(3-trifluoromethyl-phenyl)-1H-benzoimidazol-2-yl]-amide] yielded a 50% effective concentration (EC50) in assay [1] of 6.27 µM. It took 0.87 µM to reach half-maximal inhibition against BACE-1 enzyme (IC50).
`CNCc1cccn2cc(C(=O)Nc3nc4cc(-c5cccc(C(F)(F)F)c5)ccc4[nH]3)nc12` [Example 196, 8-Methylaminomethyl-imidazo[1,2-a]pyridine-2-carboxylic acid [5-(3-trifluoromethyl-phenyl)-1H-benzoimidazol-2-yl]-amide] had an EC50 in assay [1] of 5.96 µM. Besides, the IC50 against BACE-1 enzyme was 0.45 µM.
Consider `CN(C)Cc1cccn2cc(C(=O)Nc3nc4cc(-c5cccc(C(F)(F)F)c5)ccc4[nH]3)nc12` [Example 197, 8-Dimethylaminomethyl-imidazo[1,2-a]pyridine-2-carboxylic acid [5-(3-trifluoromethyl-phenyl)-1H-benzoimidazol-2-yl]-amide], for which it took 0.76 µM to reach a half-maximal effect in assay [1] (EC50). This compound also registered an IC50 against BACE-1 enzyme of 0.7 µM.
In assay [1], `CC(C)CN(C)Cc1cccn2cc(C(=O)Nc3nc4cc(-c5cccc(C(F)(F)F)c5)ccc4[nH]3)nc12` [Example 199, 8-[(Isobutyl-methyl-amino)-methyl]-imidazo[1,2-a]pyridine-2-carboxylic acid [5-(3-trifluoromethyl-phenyl)-1H-benzoimidazol-2-yl]-amide] gave an EC50 of 5.34 µM. Besides, half-maximal inhibition on BACE-1 enzyme (IC50) required 0.94 µM.
Regarding `O=C(Nc1nc2cc(-c3cccc(C(F)(F)F)c3)ccc2[nH]1)c1cn2ccc(CN3CCOCC3)cc2n1` [Example 201, 7-Morpholin-4-ylmethyl-imidazo[1,2-a]pyridine-2-carboxylic acid [5-(3-trifluoromethyl-phenyl)-1H-benzoimidazol-2-yl]-amide], a half-maximal effect in assay [1] (EC50) was put at 0.87 µM. At BACE-1 enzyme, the concentration for half-maximal inhibition (IC50) is 0.97 µM.
Regarding `CN(C)Cc1ccn2cc(C(=O)Nc3nc4cc(-c5cccc(C(F)(F)F)c5)ccc4[nH]3)nc2c1` [Example 202, 7-Dimethylaminomethyl-imidazo[1,2-a]pyridine-2-carboxylic acid [5-(3-trifluoromethyl-phenyl)-1H-benzoimidazol-2-yl]-amide], a half-maximal effect in assay [1] (EC50) was put at 4.54 µM. In addition, 0.9 µM corresponded to half-maximal inhibition against BACE-1 enzyme (IC50).
With `O=C(Nc1nc2cc(-c3cccc(C(F)(F)F)c3)ccc2[nH]1)c1cn2ccc(CNCc3ccncc3)cc2n1` [Example 204, 7-{[(Pyridin-4-ylmethyl)-amino]-methyl}-imidazo[1,2-a]pyridine-2-carboxylic acid [5-(3-trifluoromethyl-phenyl)-1H-benzoimidazol-2-yl]-amide], in assay [1], the EC50 stood at 2.37 µM. On BACE-1 enzyme, inhibition was half-maximal at 0.47 µM (IC50).
Taken in the same sequence, the figures for `CCN(C)Cc1ccn2cc(C(=O)Nc3nc4cc(-c5cccc(C(F)(F)F)c5)ccc4[nH]3)nc2c1` [Example 205, 7-[(Ethyl-methyl-amino)-methyl]-imidazo[1,2-a]pyridine-2-carboxylic acid [5-(3-trifluoromethyl-phenyl)-1H-benzoimidazol-2-yl]-amide] were 3.2 µM and 0.59 µM.
The like results for `O=C(Nc1nc2cc(-c3cccc(C(F)(F)F)c3)ccc2[nH]1)c1cn2ccc(CNCC(O)c3ccccc3)cc2n1` (stereo not drawn) [Example 206, 7-[(2-Hydroxy-2-phenyl-ethylamino)-methyl]-imidazo[1,2-a]pyridine-2-carboxylic acid [5-(3-trifluoromethyl-phenyl)-1H-benzoimidazol-2-yl]-amide] were, in that order, 7.43 µM and 0.44 µM.
The like results for `O=C(Nc1nc2cc(-c3cccc(C(F)(F)F)c3)ccc2[nH]1)c1cn2ccc(CNC(CO)Cc3ccccc3)cc2n1` (stereo not drawn) [Example 207, 7-[(1-Benzyl-2-hydroxy-ethylamino)-methyl]-imidazo[1,2-a]pyridine-2-carboxylic acid [5-(3-trifluoromethyl-phenyl)-1H-benzoimidazol-2-yl]-amide] were, in that order, 7.65 µM and 0.69 µM.
On to `COCCCNCc1ccn2cc(C(=O)Nc3nc4cc(-c5cccc(C(F)(F)F)c5)ccc4[nH]3)nc2c1` [Example 209, 7-[(3-Methoxy-propylamino)-methyl]-imidazo[1,2-a]pyridine-2-carboxylic acid [5-(3-trifluoromethyl-phenyl)-1H-benzoimidazol-2-yl]-amide], for which, in assay [1], the EC50 was found to be 4.91 µM. The IC50 against BACE-1 enzyme worked out at 0.22 µM.
Taken in the same sequence, the figures for `O=C(Nc1nc2cc(-c3cccc(C(F)(F)F)c3)ccc2[nH]1)c1cn2c(C3=CCNCC3)cccc2n1` [Example 214, 5-(1,2,3,6-tetrahydropyridin-4-yl)-N-{5-[3-(trifluoromethyl)phenyl]-1H-benzimidazol-2-yl}imidazo[1,2-a]pyridine-2-carboxamide] were 5.12 µM and 0.46 µM.
Taken in the same sequence, the figures for `CN1CC=C(c2cccc3nc(C(=O)Nc4nc5cc(-c6cccc(C(F)(F)F)c6)ccc5[nH]4)cn23)CC1` [Example 215, 5-(1-methyl-1,2,3,6-tetrahydropyridin-4-yl)-N-{5-[3-(trifluoromethyl)phenyl]-1H-benzimidazol-2-yl}imidazo[1,2-a]pyridine-2-carboxamide] were 5.35 µM and 0.41 µM.
For the compound `CN1CCC(c2cccc3nc(C(=O)Nc4nc5cc(-c6cccc(C(F)(F)F)c6)ccc5[nH]4)cn23)CC1` [Example 219, 5-(1-methylpiperidin-4-yl)-N-{5-[3-(trifluoromethyl)phenyl]-1H-benzimidazol-2-yl}imidazo[1,2-a]pyridine-2-carboxamide], a half-maximal effect in assay [1] (EC50) was put at 7.48 µM. This compound displayed an IC50 at BACE-1 enzyme of 0.9 µM.
The like results for `CNC(=O)c1cccc2nc(C(=O)Nc3nc4cc(-c5cc(F)cc(Cl)c5)ccc4[nH]3)cn12` [Example 226, Imidazo[1,2-a]pyridine-2,5-dicarboxylic acid 2-{[5-(3-chloro-5-fluoro-phenyl)-1H-benzoimidazol-2-yl]-amide} 5-methylamide] were, in that order, 2.14 µM and 0.29 µM.
As to `CN(C)C(=O)c1cccc2nc(C(=O)Nc3nc4cc(-c5cc(F)cc(Cl)c5)ccc4[nH]3)cn12` [Example 227, Imidazo[1,2-a]pyridine-2,5-dicarboxylic acid 2-{[5-(3-chloro-5-fluoro-phenyl)-1H-benzoimidazol-2-yl]-amide} 5-dimethylamide], the midpoint of the response in assay [1], the EC50, lay at 1.65 µM. In addition, at BACE-1 enzyme, the IC50 was 0.31 µM.
Taken in the same sequence, the figures for `COCCNC(=O)c1cccc2nc(C(=O)Nc3nc4cc(-c5cc(F)cc(Cl)c5)ccc4[nH]3)cn12` [Example 228] were 1.34 µM and 0.28 µM.

The term EC50 denotes the concentration needed to bring the measured effect to its halfway point. Lower therefore signals greater potency. The term IC50 denotes the concentration that gives 50% inhibition. Read a low IC50 as higher potency.
